Assay: log P (neutral), HPLC on reversed-phase column (C 18), LC-MS neutral range
Format: physicochemical
Details: for chromatographic logP: reversed-phase HPLC column (C 18), pH 7.8, HPLC reversed-phase C 18, 55° C.
Procedure: Temperature: 55° C. […] Called log P (neutral) in the table.

[1] = HPLC reversed-phase C 18, 55° C., pH 7.8, ammonium hydrogencarbonate/acetonitrile
[2] = pH 7.8, ammonium hydrogencarbonate/acetonitrile

chromatographic logP [2] | SMILES | further results
3.28 | CCSc1ccc(Cl)nc1-c1nc2cc(C(F)(F)F)nnc2n1C [XI-6, 6-(6-Chloro-3-ethylsulphanyl-2-pyridyl)-7-methyl-3-(trifluoromethyl)imidazo[4,5-c]pyridazine] | –
2.96 | CCS(=O)(=O)c1ccc(F)nc1-c1nc2cc(C(F)(F)F)ccc2n1C [XIII-1, 2-[3-(Ethylsulphonyl)-6-fluoropyridin-2-yl]-1-methyl-5-(trifluoromethyl)-1H-benzimidazole] | –
2.19 | CCS(=O)(=O)c1ccc(C(=O)OC)nc1-c1nc2cc(C(F)(F)F)nnc2n1C [LXXX-2, Methyl 5-(ethylsulphonyl)-6-[7-methyl-3-(trifluoromethyl)-7H-imidazo[4,5-c]pyridazin-6-yl]pyridine-2-carboxylate] | –
3.8 | CCSc1ccc(Cl)nc1-c1nc2cc3c(cc2n1C)OC(F)(F)O3 [XI-3, 6-(6-Chloro-3-ethylsulphanyl-2-pyridyl)-2,2-difluoro-7-methyl-[1,3]dioxolo[4,5-f]benzimidazole] | –
4.16 | CCSc1ccc(Br)nc1-c1nc2cc(C(F)(F)F)cnc2o1 [XI-5, 2-[6-Bromo-3-(ethylsulphanyl)pyridin-2-yl]-6-(trifluoromethyl)[1,3]oxazolo[5,4-b]pyridine] | –
2.61 | CCS(=O)(=O)c1ccc(C(=O)OC)nc1-c1nc2cc(C(F)(F)F)cnc2n1C [LXXX-1, Methyl 5-(ethylsulphonyl)-6-[3-methyl-6-(trifluoromethyl)-3H-imidazo[4,5-b]pyridin-2-yl]pyridine-2-carboxylate] | –
5.27 | CCSc1ccc(Br)nc1C(=O)Nc1cc(C(F)(F)F)cnc1Cl [LXIX-1, 6-Bromo-N-[2-chloro-5-(trifluoromethyl)pyridin-3-yl]-3-(ethylsulphanyl)pyridine-2-carboxamide] | –
2.6 | CCS(=O)(=O)c1ccc(Cl)nc1-c1nc2cc(C(F)(F)F)nnc2n1C [XIII-5, 6-(6-Chloro-3-ethylsulphonyl-2-pyridyl)-7-methyl-3-(trifluoromethyl)imidazo[4,5-c]pyridazine] | –
2.8 | CCS(=O)(=O)c1ccc(F)nc1-c1nc2cc(C(F)(F)F)cnc2n1C [XIII-2, 2-[3-(Ethylsulphonyl)-6-fluoropyridin-2-yl]-3-methyl-6-(trifluoromethyl)-3H-imidazo[4,5-b]pyridine] | –
3.2 | CCS(=O)(=O)c1ccc(Cl)nc1-c1nc2cc3c(cc2n1C)OC(F)(F)O3 [XIII-3, 6-(6-Chloro-3-ethylsulphonyl-2-pyridyl)-2,2-difluoro-7-methyl-[1,3]dioxolo[4,5-f]benzimidazole] | –
4 | CCSc1ccc(SCC)c(-c2cn3cc(C(F)(F)F)ncc3n2)n1 [LXXI-1, 2-[3,6-Bis(ethylsulphanyl)pyridin-2-yl]-6-(trifluoromethyl)imidazo[1,2-a]pyrazine] | –
3.45 | CCSc1ccc(F)nc1-c1nc2cc(C(F)(F)F)cnc2n1C [XI-2, 2-[3-(Ethylsulphanyl)-6-fluoropyridin-2-yl]-3-methyl-6-(trifluoromethyl)-3H-imidazo[4,5-b]pyridine] | –
2.78 | CCSc1ccc(F)nc1-c1cn2cnc(C(F)(F)F)cc2n1 [XI-4, 2-[3-(Ethylsulphanyl)-6-fluoropyridin-2-yl]-7-(trifluoromethyl)imidazo[1,2-c]pyrimidine] | –
3.44 | CCSc1ccc(F)nc1-c1nc2cc(C(F)(F)F)ccc2n1C [XI-1, 2-[3-(Ethylsulphanyl)-6-fluoropyridin-2-yl]-1-methyl-5-(trifluoromethyl)-1H-benzimidazole] | –

Further lines, the compound ahead of its results:

SMILES | chromatographic logP [2] | further results
CCS(=O)(=O)c1ccc(-n2cncn2)nc1-c1nc2cc(C(F)(F)F)nnc2n1C [Example I-43] | – | log P (neutral) [1]: 2.08
FC1(F)Oc2cc3nc(-c4nc(Cl)ccc4Cl)[nH]c3cc2O1 [IX-4, 6-(3,6-Dichloro-2-pyridyl)-2,2-difluoro-5H-[1,3]dioxolo[4,5-f]benzimidazole] | 3.2 | –
Cn1c(-c2nc(F)ccc2F)nc2cc(C(F)(F)F)ccc21 [IX-1, 2-(3,6-Difluoropyridin-2-yl)-1-methyl-5-(trifluoromethyl)-1H-benzimidazole] | 2.83 | –
CCS(=O)(=O)c1ccc(-n2cccn2)nc1-c1cn2cnc(C(F)(F)F)cc2n1 [Example I-46] | – | log P (neutral) [1]: 2.58
CCS(=O)(=O)c1ccc(-n2ccc(C(F)(F)F)n2)nc1-c1nc2cc(C(F)(F)F)cnc2o1 [Example I-42] | – | log P (neutral) [1]: 4.17
CCS(=O)(=O)c1ccc(S(=O)(=O)CC)c(-c2cn3cc(C(F)(F)F)ncc3n2)n1 [LXXIII-2, 2-[3,6-Bis(ethylsulphonyl)pyridin-2-yl]-6-(trifluoromethyl)imidazo[1,2-a]pyrazine] | 2.23 | –
CCS(=O)(=O)c1ccc(-n2cc(Cl)cn2)nc1-c1nc2cc(C(F)(F)F)nnc2n1C [Example I-35, 6-[6-(4-Chloropyrazol-1-yl)-3-ethylsulphonyl-2-pyridyl]-7-methyl-3-(trifluoromethyl)imidazo[4,5-c]pyridazine] | 3.38 | –
CCS(=O)(=O)c1ccc(-n2cc(Cl)cn2)nc1-c1cn2cc(C(F)(F)F)ncc2n1 [Example I-18, 2-[6-(4-Chloro-1H-pyrazol-1-yl)-3-(ethylsulphonyl)pyridin-2-yl]-6-(trifluoromethyl)imidazo[1,2-a]pyrazine] | 3.44 | –
Cn1c(-c2nc(Cl)ccc2Cl)nc2cc3c(cc21)OC(F)(F)O3 [IX-3, 6-(3,6-Dichloro-2-pyridyl)-2,2-difluoro-7-methyl-[1,3]dioxolo[4,5-f]benzimidazole] | 3.22 | –
CCS(=O)(=O)c1ccc(-n2cc(Cl)cn2)nc1-c1nc2cc(C(F)(F)F)cnc2o1 [Example I-41] | – | log P (neutral) [1]: 4.01
CCS(=O)(=O)c1ccc(-n2cncn2)nc1-c1cn2cnc(C(F)(F)F)cc2n1 [Example I-28] | – | log P (neutral) [1]: 2.19
CON(C)C(=O)c1nc(F)ccc1F [3,6-Difluoro-N-methoxy-N-methylpyridine-2-carboxamide] | 1.05 | –
CCS(=O)(=O)c1ccc(NC(C)=O)nc1-c1nc2cc(C(F)(F)F)cnc2o1 [Example I-19, N-{5-(Ethylsulphonyl)-6-[6-(trifluoromethyl) [1,3]oxazolo[5,4-b]pyridin-2-yl]pyridin-2-yl}acetamide] | 2.44 | –
CCS(=O)(=O)c1ccc(-n2ccnc2)nc1-c1cn2cnc(C(F)(F)F)cc2n1 [Example I-45] | – | log P (neutral) (pH 7.8): 2.07
Fc1ccc(F)c(-c2cn3cnc(C(F)(F)F)cc3n2)n1 [IX-5, 2-(3,6-Difluoropyridin-2-yl)-7-(trifluoromethyl)imidazo[1,2-c]pyrimidine] | 2.02 | –
CCS(=O)(=O)c1ccc(-n2nccn2)nc1-c1cn2cnc(C(F)(F)F)cc2n1 [Example I-27] | – | log P (neutral) [1]: 2.28
CCS(=O)(=O)c1ccc(C(=O)NC)nc1-c1nc2cc(C(F)(F)F)cnc2n1C [Example I-34, 5-(Ethylsulphonyl)-N-methyl-6-[3-methyl-6-(trifluoromethyl)-3H-imidazo[4,5-b]pyridin-2-yl]pyridine-2-carboxamide] | 2.36 | –
Cn1c(-c2nc(F)ccc2F)nc2cc(C(F)(F)F)cnc21 [IX-2, 2-(3,6-Difluoropyridin-2-yl)-3-methyl-6-(trifluoromethyl)-3H-imidazo[4,5-b]pyridine] | 2.72 | –
CCSc1ccc(C(=O)OC)nc1-c1nc2cc(C(F)(F)F)cnc2n1C [LXXIX-1, Methyl 5-(ethylsulphanyl)-6-[3-methyl-6-(trifluoromethyl)-3H-imidazo[4,5-b]pyridin-2-yl]pyridine-2-carboxylate] | 3.25 | –
O=C(CBr)c1nc(F)ccc1F [2-Bromo-1-(3,6-difluoropyridin-2-yl)ethanone] | 1.93 | log P (neutral) [1]: 1.95
CCS(=O)(=O)c1ccc(-n2nccn2)nc1-c1nc2cc(C(F)(F)F)nnc2n1C [Example I-44] | – | log P (neutral) [1]: 2.21
CCS(=O)(=O)c1ccc(C(=O)NC)nc1-c1nc2cc(C(F)(F)F)nnc2n1C [Example I-39, 5-(Ethylsulphonyl)-N-methyl-6-[7-methyl-3-(trifluoromethyl)-7H-imidazo[4,5-c]pyridazin-6-yl]pyridine-2-carboxamide] | 1.96 | –
CCS(=O)(=O)c1ccc(NC2COC2)nc1-c1nc2cc(C(F)(F)F)cnc2n1C [Example I-26] | – | log P (neutral) [1]: 2.27
CCSc1ccc(Br)nc1C(=O)O [6-Bromo-3-(ethylsulphanyl)pyridine-2-carboxylic acid] | 1.79 | –
COC(=O)c1ccc(Cl)c(-c2nc3cc(C(F)(F)F)cnc3n2C)n1 [LXXVIII-1, Methyl 5-chloro-6-[3-methyl-6-(trifluoromethyl)-3H-imidazo[4,5-b]pyridin-2-yl]pyridine-2-carboxylate] | 2.7 | –
CCS(=O)(=O)c1ccc(NC(=O)C(F)(F)F)nc1-c1nc2cc(C(F)(F)F)cnc2o1 [Example I-40] | – | log P (neutral) [1]: 3.09
CC(=O)c1nc(F)ccc1F [1-(3,6-Difluoropyridin-2-yl)ethanone] | 1.24 | –
Cn1c(-c2nc(Cl)ccc2Cl)nc2cc(C(F)(F)F)nnc21 [IX-7, 6-(3,6-Dichloro-2-pyridyl)-7-methyl-3-(trifluoromethyl)imidazo[4,5-c]pyridazine] | 2.65 | –
CCS(=O)(=O)c1ccc(S(=O)(=O)CC)c(-c2cn3cnc(C(F)(F)F)cc3n2)n1 [LXXIII-1, 2-[3,6-Bis(ethylsulphonyl)pyridin-2-yl]-7-(trifluoromethyl)imidazo[1,2-c]pyrimidine] | 2.28 | –

From patent US10667517B2, “2-(Het)aryl-substituted fused heterocycle derivatives as pesticides” (BAYER CROPSCIENCE AKTIENGESELLSCHSAFT, priority 2015, dated 2020)
